Consider 16 molecules from PubChem BioAssay (NCI).

Broadly, the TGI is the concentration giving total growth inhibition. What is called GI50 is the concentration that inhibits growth by half.

Test systems include OVCAR-4 ovarian; NCI-H460 lung; HT29 colon; OVCAR-3 ovarian; HCT-15 colon; SNB-75 CNS; CCRF-CEM leukemia; SNB-19 CNS; SF-539 CNS.
Common to all, as to assay: DTP human tumour cell line panel, 48 h

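Assay format: 96-well plates, 48-hour exposure. The concentration for 50% growth inhibition is given as GI50. Definition used: TGI = concentration required for complete inhibition of growth.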

`Cc1c(Cl)cccc1N1C(=O)C(Cl)=C(Cl)C1=O`: the concentration for total growth inhibition (TGI) with OVCAR-4 ovarian, in the assay with NCI-H460 lung, in the assay with HT29 colon, in the assay on OVCAR-3 ovarian, in the assay with HCT-15 colon and in the assay on SNB-75 CNS was greater than 100 µM each time. In addition, the values for the total growth inhibition concentration (TGI) in the assay on CCRF-CEM leukemia, in the assay on SNB-19 CNS and with SF-539 CNS were 27.8 µM, greater than 100 µM and greater than 100 µM, respectively.
Regarding `COc1ccc2oc(-c3cccnc3)cc(=O)c2c1`, the total growth inhibition concentration (TGI) in the assay on OVCAR-4 ovarian, with NCI-H460 lung, in the assay with HT29 colon, in the assay on OVCAR-3 ovarian, in the assay on SNB-75 CNS and with CCRF-CEM leukemia was greater than 100 µM throughout. The TGI with SNB-19 CNS was greater than 100 µM.
For the molecule `CCOc1ccc2c(c1)[n+]([O-])c(-c1ccccc1Cl)c(N)[n+]2[O-]`, the concentration for total growth inhibition (TGI) in the assay with OVCAR-4 ovarian, in the assay on NCI-H460 lung, in the assay with HT29 colon, with OVCAR-3 ovarian, with SNB-75 CNS and in the assay on CCRF-CEM leukemia was greater than 100 µM throughout. For the same molecule, the concentration for total growth inhibition (TGI) in the assay with SNB-19 CNS and in the assay with SF-539 CNS was greater than 100 µM in each case.
Turning to `CCC1C2C=CC(CC2)N1S(=O)(=O)c1ccc(C)cc1` (configuration not stated), the TGI in the assay with OVCAR-4 ovarian is greater than 100 µM; in the assay on NCI-H460 lung, 52.1 µM; with HT29 colon it was 42.1 µM; in the assay with OVCAR-3 ovarian, greater than 100 µM; in the assay with HCT-15 colon, 73.5 µM; in the assay with CCRF-CEM leukemia, greater than 100 µM. Also, the TGI was greater than 100 µM in the assay with SNB-19 CNS and 76.6 µM with SF-539 CNS.
For `O=C(N/N=C1/C(=O)N(c2ccc(Cl)cc2Cl)C(=O)C(=O)C1c1nc2ccccc2o1)c1ccccc1O` (configuration not stated), the concentration for total growth inhibition (TGI) in the assay on NCI-H460 lung is greater than 100 µM; in the assay with HT29 colon, greater than 100 µM; in the assay on OVCAR-3 ovarian, 52.4 µM; in the assay on HCT-15 colon, greater than 100 µM; in the assay with SNB-75 CNS it was greater than 100 µM; in the assay on CCRF-CEM leukemia, greater than 100 µM. For the same molecule, the TGI in the assay with SNB-19 CNS is greater than 100 µM; in the assay on SF-539 CNS, 97.1 µM.
In the case of `O=C(O)[C@H](NS(=O)(=O)c1ccc2ccccc2c1)c1ccccc1`, the total growth inhibition concentration (TGI) in the assay on OVCAR-4 ovarian, with NCI-H460 lung, in the assay with HT29 colon, in the assay on HCT-15 colon, in the assay on SNB-75 CNS and with CCRF-CEM leukemia was greater than 100 µM in each case. In addition, the TGI in the assay with SNB-19 CNS and in the assay on SF-539 CNS was greater than 100 µM each time.
As for `c1ccc(SC2CCSc3ccccc3C2Sc2ccccc2)cc1` (configuration not stated), the TGI with OVCAR-4 ovarian, in the assay with NCI-H460 lung, with HT29 colon, in the assay with OVCAR-3 ovarian, with HCT-15 colon and in the assay with SNB-75 CNS was greater than 100 µM throughout. The TGI in the assay on CCRF-CEM leukemia, in the assay on SNB-19 CNS and in the assay on SF-539 CNS was greater than 100 µM in each case.
On to `COc1ccc(/C(=N\NC(=O)C(N)=O)C(c2ccc(OC)cc2)C2(O)C(=O)Nc3c(Cl)cccc32)cc1` (configuration not stated), for which the TGI in the assay with OVCAR-4 ovarian, in the assay with NCI-H460 lung, with HT29 colon, in the assay with OVCAR-3 ovarian, with SNB-75 CNS and in the assay with CCRF-CEM leukemia was greater than 100 µM each time. The same molecule yielded a TGI in the assay with SNB-19 CNS greater than 100 µM.
On to `CC1=C2CCCC2=C/C(=N/Nc2ccc([N+](=O)[O-])cc2[N+](=O)[O-])CC1`, for which the TGI with OVCAR-4 ovarian, with NCI-H460 lung, with HT29 colon, in the assay on OVCAR-3 ovarian, in the assay with SNB-75 CNS and in the assay with CCRF-CEM leukemia was greater than 100 µM throughout. In addition, the TGI with SNB-19 CNS and in the assay with SF-539 CNS was greater than 100 µM throughout.
`COC12C=C/C(=C(/C(=O)OCc3ccncc3)C(=O)CCCCCCCCC3(OC)C=C/C(=C(/C(=O)OCc4ccncc4)C(=O)CCCCCCCC1)O3)O2`: the GI50 with OVCAR-4 ovarian was 0.583 µM; in the assay on NCI-H460 lung it was 0.915 µM; in the assay with HT29 colon, 0.721 µM; in the assay with OVCAR-3 ovarian, 0.207 µM; in the assay on HCT-15 colon, 0.548 µM; in the assay on SNB-75 CNS, 0.779 µM. Moreover, the GI50 was 0.0515 µM with CCRF-CEM leukemia, 1.28 µM in the assay with SNB-19 CNS and 0.877 µM in the assay with SF-539 CNS. Further, the TGI with OVCAR-4 ovarian is 3.41 µM; in the assay with NCI-H460 lung it was 1.98 µM; with HT29 colon, 4.79 µM; in the assay on OVCAR-3 ovarian, 0.93 µM; with HCT-15 colon it was 1.74 µM; with SNB-75 CNS, 1.97 µM. In addition, the concentration for total growth inhibition (TGI) with CCRF-CEM leukemia stood at 2.29 µM; with SNB-19 CNS, 7.17 µM; in the assay on SF-539 CNS, 2.03 µM.
Regarding `O=c1n(-c2ccccc2)c(=O)n2n1C1C=CC2C2C(C1)C2(Cl)Cl` (configuration not stated), the concentration for total growth inhibition (TGI) in the assay with OVCAR-4 ovarian, with NCI-H460 lung, in the assay on OVCAR-3 ovarian, with HCT-15 colon, with SNB-75 CNS and in the assay on CCRF-CEM leukemia was greater than 100 µM in each case. Further, the total growth inhibition concentration (TGI) in the assay with SNB-19 CNS and in the assay on SF-539 CNS was greater than 100 µM throughout.
Turning to `CCOC(=O)C(C)(C)Oc1ccc2c(C)c(-c3ccc(Cl)cc3)c(=O)oc2c1`, the total growth inhibition concentration (TGI) is greater than 100 µM with OVCAR-4 ovarian; greater than 100 µM in the assay with NCI-H460 lung; 62.7 µM with HT29 colon; greater than 100 µM in the assay with OVCAR-3 ovarian; greater than 100 µM in the assay with HCT-15 colon; greater than 100 µM in the assay with SNB-75 CNS. The concentration for total growth inhibition (TGI) in the assay with CCRF-CEM leukemia, in the assay on SNB-19 CNS and in the assay with SF-539 CNS was greater than 100 µM throughout.
Turning to `O=C1CC(C[C@H](O)C2CCCCC2O)CC(=O)N1Cc1ccccc1` (some centres not stated), the TGI in the assay on OVCAR-4 ovarian, in the assay on NCI-H460 lung, in the assay on HT29 colon, with OVCAR-3 ovarian, with SNB-75 CNS and with CCRF-CEM leukemia was greater than 100 µM each time. Moreover, the concentration for total growth inhibition (TGI) with SNB-19 CNS and with SF-539 CNS was greater than 100 µM in each case.
Consider `CCOc1ccc(N2C(=O)/C(=C/c3ccc(N(CCC#N)CCC#N)cc3)N=C2c2cc([N+](=O)[O-])ccc2Cl)cc1`, for which the TGI was greater than 100 µM in the assay with OVCAR-4 ovarian; 55.7 µM in the assay on NCI-H460 lung; 56.5 µM with OVCAR-3 ovarian; greater than 100 µM in the assay with HCT-15 colon; greater than 100 µM in the assay with SNB-75 CNS; greater than 100 µM with SNB-19 CNS. The total growth inhibition concentration (TGI) in the assay on SF-539 CNS was greater than 100 µM.
As for `COc1ccc(-c2cc(-c3ccccc3)c(C#N)c(=O)n2C2OC(CO)C(O)C(O)C2O)cc1` (configuration not stated), the total growth inhibition concentration (TGI) in the assay with OVCAR-4 ovarian, in the assay on NCI-H460 lung, in the assay on HT29 colon, in the assay with OVCAR-3 ovarian, in the assay on HCT-15 colon and in the assay with CCRF-CEM leukemia was greater than 100 µM each time. The TGI in the assay with SNB-19 CNS and in the assay on SF-539 CNS was greater than 100 µM each time.
In the case of `COc1ccc(NC(=O)/C(N=O)=C(/C)O)cc1`, the TGI is 53.5 µM in the assay with NCI-H460 lung; greater than 100 µM with HT29 colon; 36.8 µM with HCT-15 colon; greater than 100 µM in the assay on SNB-75 CNS; greater than 100 µM in the assay with CCRF-CEM leukemia; greater than 100 µM in the assay on SNB-19 CNS. This molecule showed a TGI in the assay on SF-539 CNS greater than 100 µM.
